Each structure is given as a SMILES string. Starred links: 1 amine or outer side, 2 acyl side, 3 side chain; linkers in the order of their positions; H or OH if unused. Non-standard residues stand in square brackets, D forms with d. Residues, ends and D or L forms follow the SMILES beside them. *: point of attachment. NHCH2CHPh2 = c1ccc(C(CN*)c2ccccc2)cc1; pNA = O=[N+]([O-])c1ccc(N*)cc1; NHPhenethyl = c1ccc(CCN*)cc1; Suc = O=C(CCC(=O)[*:2])[*:1]; Orn = NCCC[C@H](N)C(=O)O

Peptidyl-prolyl cis-trans isomerase A (cyclophilin A, hCyp-18) (Homo sapiens), sequence (P62937 whole entry, looked up): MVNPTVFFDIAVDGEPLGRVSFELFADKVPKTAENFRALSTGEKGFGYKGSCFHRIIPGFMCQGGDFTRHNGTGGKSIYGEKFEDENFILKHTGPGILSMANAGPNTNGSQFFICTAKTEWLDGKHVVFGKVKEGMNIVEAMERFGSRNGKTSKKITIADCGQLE

This assay concerns the target Peptidyl-prolyl cis-trans isomerase A (cyclophilin A, hCyp-18) (Homo sapiens) (UniProt P62937). Kind of assay: 50% inhibitory concentration of competitive binding against hCyp-18 PPIase activity using uncoupled assay.
Consider `C[C@H](NC(=O)CCC(=O)O)C(=O)N[C@@H](C)C(=O)N1CCC[C@H]1C(=O)N[C@@H](Cc1ccccc1)C(=O)Nc1ccc([N+](=O)[O-])cc1` [N-[1-(1-Methyl-2-{2-[1-(4-nitro-phenylcarbamoyl)-2-phenyl-ethylcarbamoyl]-pyrrolidin-1-yl}-2-oxo-ethylcarbamoyl)-ethyl]-succinamic acid] (Suc-AAPF-pNA), for which the IC50 (in general, the concentration that gives 50% inhibition) is 850 µM.

The compound `CC[C@H](C)[C@H](NC(=O)[C@@H]1CCCN1C(=O)CNC(=O)[C@H](C)NC(=O)[C@H](CCCN)NC(=O)[C@@H](NC(C)=O)C(C)C)C(=O)N[C@@H](C)C(N)=O` [1-(2-{2-[2-(2-Acetylamino-3-methyl-butyrylamino)-5-amino-pentanoylamino]-propionylamino}-acetyl)-pyrrolidine-2-carboxylic acid [1-(1-carbamoyl-ethylcarbamoyl)-2-methyl-butyl]-amide] (Ac-V[Orn]AGPIA-NH2) came in with an IC50 greater than 10000 µM.

The compound `CC[C@@H]1/C=C(\C)C[C@H](C)C[C@H](OC)[C@H]2O[C@@](O)(C(=O)C(=O)N3CCCC[C@H]3C(=O)O[C@H](/C(C)=C/[C@@H]3CC[C@@H](O)[C@H](OC)C3)[C@H](C)[C@@H](O)CC1=O)[C@H](C)C[C@@H]2OC` gave an IC50 of 8 µM.

`CC[C@H](C)[C@H](NC(=O)[C@@H]1CCCN1C(=O)CNC(=O)[C@H](C)NC(=O)[C@H](Cc1cnc[nH]1)NC(=O)[C@@H](NC(C)=O)C(C)C)C(=O)NCC(c1ccccc1)c1ccccc1` (Ac-VHAGPI-NHCH2CHPh2) came in with an IC50 of 365 µM.

With `CC[C@H](C)[C@H](NC(=O)[C@@H]1CCCN1C(=O)CNC(=O)[C@H](C)NC(=O)[C@H](Cc1cnc[nH]1)NC(=O)[C@@H](NC(C)=O)C(C)C)C(=O)NCCc1ccccc1` (Ac-VHAGPI-NHPhenethyl), the IC50 is 325 µM.
